# Measurements from patent US7479478B2, “Human parathyroid hormone modifications, preparation and use” (The General Hospital Corporation, priority 1998, dated 2009).
# No end group written: not given here.
# Assays:
# rat PTH-1 receptors [1] = molecular target: T1, rat PTH-1 receptors (Rattus norvegicus, UniProt P25961); assay: AC activation (cAMP) in EW5 cells; assay type: cell-based
# T1 construct: expressed in transfected cells
# T1 sequence (P25961 27-591): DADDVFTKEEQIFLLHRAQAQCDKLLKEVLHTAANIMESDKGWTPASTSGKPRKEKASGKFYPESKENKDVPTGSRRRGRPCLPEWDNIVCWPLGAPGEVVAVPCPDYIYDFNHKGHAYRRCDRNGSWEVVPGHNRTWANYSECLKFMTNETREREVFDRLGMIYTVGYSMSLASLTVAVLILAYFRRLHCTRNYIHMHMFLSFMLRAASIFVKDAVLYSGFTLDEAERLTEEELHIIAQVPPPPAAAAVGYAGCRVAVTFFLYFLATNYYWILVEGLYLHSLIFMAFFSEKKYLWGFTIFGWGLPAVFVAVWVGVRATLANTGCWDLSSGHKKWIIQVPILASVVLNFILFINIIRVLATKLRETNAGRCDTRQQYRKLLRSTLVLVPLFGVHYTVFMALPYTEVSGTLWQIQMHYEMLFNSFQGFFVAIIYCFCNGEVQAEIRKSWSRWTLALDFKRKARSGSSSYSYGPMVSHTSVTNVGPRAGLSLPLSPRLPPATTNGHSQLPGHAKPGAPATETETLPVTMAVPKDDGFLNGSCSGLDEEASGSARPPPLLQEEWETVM
# Description: HKRK B7 or EW5 cells (32), subclones of LLC-PKI renal epithelial cells that stably express human or rat PTH-1 receptors (950,000 and 320,000 receptors/cell, respectively), were maintained under 5% CO2 in air in Dulbecco's modified essential medium containing 7% fetal bovine serum (FBS) and 1% penicillin/streptomycin (GIBCO-BRL, Grand Island, N.Y.). HEK-293 and COS-7 cells were cultured similarly, except that 10% FBS was used in the medium. Cells were seeded into 24-well plates two days before assay at a density of 2-2.5×10^5 cells/well (HKRK B7 or EW 5 cells) or 6×10^5 cells/well (in 6-well plates) (HEK-293 cells). […]
# Intracellular cAMP accumulation, PLC activation and PTHR binding affinity were measured as previously reported (Bringhurst, F. R., et al., Endocrinology 132(5):2090-2098 (1993); Guo, J., et al., Endocrinology 136(9):3884-3891 (1995)). Intracellular cAMP accumulation was measured in extracts of cells that were exposed to human PTH peptides in the presence of isobutylmethyxanthine (IBMX, 1 mM) at 37° C. for 15 min. After terminating the reactions by aspiration and freezing in liquid nitrogen, cell monolayers were extracted with 50 mM HCl and cAMP was measured using a radioimmunoassay kit (Dupont-New England Nuclear, Boston, Mass.). […]
# human PTH-1 receptors = molecular target: T2, human PTH-1 receptors (Homo sapiens, UniProt Q03431); assay: Radioligand competition binding with 125I-[Nle8,21,Tyr34]rat PTH-(1-34) in HKRK B7 cells; conditions: read-out: apparent IC50 for binding
# T2 construct: expressed in transfected cells
# T2 sequence (Q03431 27-593): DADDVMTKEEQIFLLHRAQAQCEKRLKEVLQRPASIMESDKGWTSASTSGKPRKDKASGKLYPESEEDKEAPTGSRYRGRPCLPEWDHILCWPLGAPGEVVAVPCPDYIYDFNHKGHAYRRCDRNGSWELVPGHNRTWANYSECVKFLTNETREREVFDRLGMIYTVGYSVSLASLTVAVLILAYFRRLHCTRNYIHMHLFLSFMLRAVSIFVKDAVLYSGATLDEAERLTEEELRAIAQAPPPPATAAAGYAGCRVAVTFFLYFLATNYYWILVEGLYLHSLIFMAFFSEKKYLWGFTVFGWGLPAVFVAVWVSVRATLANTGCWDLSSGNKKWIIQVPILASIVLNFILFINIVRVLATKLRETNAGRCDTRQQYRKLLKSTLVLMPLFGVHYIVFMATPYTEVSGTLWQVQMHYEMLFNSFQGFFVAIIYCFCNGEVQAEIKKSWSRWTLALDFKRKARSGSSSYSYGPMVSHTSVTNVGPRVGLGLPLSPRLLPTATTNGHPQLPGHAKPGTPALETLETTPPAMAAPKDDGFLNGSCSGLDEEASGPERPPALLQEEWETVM
# Description: HKRK B7 or EW5 cells (32), subclones of LLC-PKI renal epithelial cells that stably express human or rat PTH-1 receptors (950,000 and 320,000 receptors/cell, respectively), were maintained under 5% CO2 in air in Dulbecco's modified essential medium containing 7% fetal bovine serum (FBS) and 1% penicillin/streptomycin (GIBCO-BRL, Grand Island, N.Y.). HEK-293 and COS-7 cells were cultured similarly, except that 10% FBS was used in the medium. Cells were seeded into 24-well plates two days before assay at a density of 2-2.5×10^5 cells/well (HKRK B7 or EW 5 cells) or 6×10^5 cells/well (in 6-well plates) (HEK-293 cells). In experiments involving HEK-293 cells, DNA transfections were performed 24 hr after plating and inositol radiolabel was added 24 hr thereafter (see below). COS-7 cell transfections were performed as previously described (Gardella, T. J., et al., Endocrinology 132(5):2024-2030 (1993)) Radioligand competition binding assays were performed at 2-8° C. for 6 hr using ^125I-[Nle^8,21,[…]]rat PTH-(1-34) (100,000 cpm/well) in the presence or absence of non-radioactive hPTH-(1-34) analogs. Cell layers were washed three times before solubilization for determination of cell-associated radioactivity.
# rat PTH-1 receptors [2] = molecular target: T1, rat PTH-1 receptors; assay: Radioligand binding in EW5 cells; conditions: compared with human PTH-1 receptor
# Description: HKRK B7 or EW5 cells (32), subclones of LLC-PKI renal epithelial cells that stably express human or rat PTH-1 receptors (950,000 and 320,000 receptors/cell, respectively), were maintained under 5% CO2 in air in Dulbecco's modified essential medium containing 7% fetal bovine serum (FBS) and 1% penicillin/streptomycin (GIBCO-BRL, Grand Island, N.Y.). HEK-293 and COS-7 cells were cultured similarly, except that 10% FBS was used in the medium. Cells were seeded into 24-well plates two days before assay at a density of 2-2.5×10^5 cells/well (HKRK B7 or EW 5 cells) or 6×10^5 cells/well (in 6-well plates) (HEK-293 cells). In experiments involving HEK-293 cells, DNA transfections were performed 24 hr after plating and inositol radiolabel was added 24 hr thereafter (see below). COS-7 cell transfections were performed as previously described (Gardella, T. J., et al., Endocrinology 132(5):2024-2030 (1993))
# Radioligand competition binding assays were performed at 2-8° C. for 6 hr using ^125I-[Nle^8,21, Tyr^34]rat PTH-(1-34) (100,000 cpm/well) in the presence or absence of non-radioactive hPTH-(1-34) analogs. Cell layers were washed three times before solubilization for determination of cell-associated radioactivity. […]
Substance,fold impairment of EC50 for AC at the rat PTH-1 receptor relative to hPTH-(1-34) (rat PTH-1 receptors [1]),IC50 (human PTH-1 receptors) [nM],"binding affinity for rat PTH-1 receptor, result in words (rat PTH-1 receptors [2])","signaling (AC) via rat PTH-1 receptors, result in words (rat PTH-1 receptors [1]; compared with human PTH-1 receptor)"
"GVSEIQLMHNLGKHLNSMRRVEWLRKKL [[Gly^1,Arg^19]hPTH-(1-28)]",about 6 fold,–,–,–
SVSEIQLMHNLGKHLNSMERVEWLRKKL-NH2 [hPTH-(1-28)],–,1000,comparable,more severely impaired
